The values that follow come from patent US20060004029A1, “Nitrogen-containing aromatic derivatives” (priority 2003, published 2006).

As a reminder, the IC50 is the concentration at which inhibition is half-maximal.

Like-named read-outs stand apart in the source and are kept apart here.

Assay [1] has as its target T1, VEGFR2 (Homo sapiens, UniProt P35968).
T1 construct: coding for the cytoplasmic domain, beginning with lysine 791 and including the termination codon; made in house; host or cells: Sf9 insect cells, baculovirus (pFastBacHis)
Nature of the assay: Inhibition against receptor tyrosine kinase activity (HTRF), VEGFR2. It counts as biochemical. How it is done:
This assay is used to determine inhibition of a test substance on tyrosine kinase activity. […] Expression in an appropriate expression system can produce a polypeptide with tyrosine kinase activity. […] The recombinant construct was transfected into insect cells (Spondoptea frugiperda9 (Sf9)) to prepare a recombinant Baculovirus.
For expression of the VEGFR2 tyrosine kinase, Sf9 cells were infected with the VEGFR2 recombinant virus and collected after 48 hours. The collected cells were rinsed with ice-cooled phosphate buffered saline (PBS) and then resuspended using 20 ml of ice-cooled Lysis Buffer (50 mM Tris-HCl (pH 8.5), 5 mM 2-mercaptoethanol, 100 mM KCl, 1 mM phenylmethylsulfonyl fluoride, 1% (v/v) NP-40) per 1.5×10^8 cells. The suspension was centrifuged at 12,000 rpm for 30 minutes at 4° C. and the supernatant was obtained. The supernatant was added to a Ni-NTA agarose column (3 ml, purchased from Qiagen) equilibrated with Buffer A {20 mM Tris-HCl (pH 8.5), 5 mM 2-mercaptoethanol, 500 mM KCl, 20 mM imidazole, 10% (v/v) glycerol}. The column was washed with 30 ml of Buffer A, and then with 6 ml of Buffer B {20 mM Tris-HCl (pH 8.5), 5 mM 2-mercaptoethanol, 1M KCl, 10% (v/v) glycerol}, and finally with 6 ml of Buffer A. After washing, it was eluted with 6 ml of Buffer C {20 mM Tris-HCl (pH 8.5), 5 mM 2-mercaptoethanol, 100 mM KCl, 100 mM imidazole, 10% (v/v) glycerol}. The eluate was placed on a dialysis membrane (purchased from Spectrum Laboratories) and dialyzed with a dialysis buffer {20 mM Tris-HCl (pH 7.5), 10% (v/v) glycerol, 1 mM dithiothreitol, 0.1 mM Na3VO4, 0.1 mM EGTA}. […] Using the same method for the cytoplasmic domains of FGFR1, PDGFRβ and HGFR yielded respective recombinant proteins fused with 6 histidine residues at the N-terminal (His6-FGFR1, His6-PDGFRβ or His6-HGFR).
The tyrosine kinase reaction was conducted as follows. […] Next, 10 μl of 4 μM ATP (diluted with distilled water) was added prior to incubation at 30° C. for 10 minutes, and then 10 μl of 500 mM EDTA (pH 8.0) was added.
The tyrosine phosphorylation rate for the biotin-poly(GT) was expressed as the delta F % value as described in the HTRF Standard Experiment Methods text by CIS Diagnostics Co. The delta F % value in the presence of the test substance was determined as a ratio (%) with the delta F % value with addition of His6-VEGFR2 in the absence of the test substance defined as 100% and the delta F % value in the absence of both the test substance and His6-VEGFR2 defined as 0%.
Background: TR-FRET usually uses a lanthanide donor and a delayed reading to cut background.

Assay [2] deals with T2, FGFR1 (Homo sapiens, UniProt P11362).
T2 construct: made in house; host or cells: Sf9 insect cells, baculovirus (pFastBacHis), by the same method as VEGFR2
In words: Inhibition against receptor tyrosine kinase activity (HTRF), FGFR1. It counts as biochemical. An excerpt: This assay is used to determine inhibition of a test substance on tyrosine kinase activity. DNA coding for the cytoplasmic domain of VEGFR2 is obtained by total cDNA synthesis (Edwards M, International Biotechnology Lab 5(3), 19-25, 1987) or by cloning. Expression in an appropriate expression system can produce a polypeptide with tyrosine kinase activity. […] For VEGFR2 (GenBank Accession No. L04947), the 1.7 kb DNA fragment described by Terman et al. (Oncogene, 6(9), 1677-1683, 1991), coding for the cytoplasmic domain, beginning with lysine 791 and including the termination codon, was isolated from a human placental cDNA library (purchased from Clontech Laboratories, Inc.) and cloned in a Baculovirus expression vector (pFastBacHis, purchased from GIBCO BRL). The recombinant construct was transfected into insect cells (Spondoptea frugiperda9 (Sf9)) to prepare a recombinant Baculovirus. (Instructions for preparation and use of recombinant Baculovirus may be found in standard texts, such as “Bac-To-Bac Baculovirus Expression System” (GIBCO BRL).) The cytoplasmic fragment starting from lysine 398 (FGFR1, GenBank Accession No. X52833), the cytoplasmic fragment starting from lysine 558 (PDGFRβ, GenBank Accession No. M21616) or the cytoplasmic fragment starting from lysine 974 (HGFR, GenBank Accession No. J02958) may be cloned and expressed by the same method for use in assays for other tyrosine kinases. EGFR was purchased from Sigma Co. (Product No. E-2645).
For expression of the VEGFR2 tyrosine kinase, Sf9 cells were infected with the VEGFR2 recombinant virus and collected after 48 hours. The collected cells were rinsed with ice-cooled phosphate buffered saline (PBS) and then resuspended using 20 ml of ice-cooled Lysis Buffer (50 mM Tris-HCl (pH 8.5), 5 mM 2-mercaptoethanol, 100 mM KCl, 1 mM phenylmethylsulfonyl fluoride, 1% (v/v) NP-40) per 1.5×10^8 cells. The suspension was centrifuged at 12,000 rpm for 30 minutes at 4° C. and the supernatant was obtained. The supernatant was added to a Ni-NTA agarose column (3 ml, purchased from Qiagen) equilibrated with Buffer A {20 mM Tris-HCl (pH 8.5), 5 mM 2-mercaptoethanol, 500 mM KCl, 20 mM imidazole, 10% (v/v) glycerol}. The column was washed with 30 ml of Buffer A, and then with 6 ml of Buffer B {20 mM Tris-HCl (pH 8.5), 5 mM 2-mercaptoethanol, 1M KCl, 10% (v/v) glycerol}, and finally with 6 ml of Buffer A. After washing, it was eluted with 6 ml of Buffer C {20 mM Tris-HCl (pH 8.5), 5 mM 2-mercaptoethanol, 100 mM KCl, 100 mM imidazole, 10% (v/v) glycerol}. The eluate was placed on a dialysis membrane (purchased from Spectrum Laboratories) and dialyzed with a dialysis buffer {20 mM Tris-HCl (pH 7.5), 10% (v/v) glycerol, 1 mM dithiothreitol, 0.1 mM Na3VO4, 0.1 mM EGTA}. After dialysis, it was supplied for SDS-electrophoresis, and the recombinant protein (His6-VEGFR2, cytoplasmic domain of VEGFR2 fused with 6 histidine residues at the N-terminus) detected at a molecular weight of approximately 100 kDa with Coumassie Brilliant Blue staining was assayed using BSA (bovine serum albumin, purchased from Sigma Co.) as the standard substance, and stored at −80° C. until use. Using the same method for the cytoplasmic domains of FGFR1, PDGFRβ and HGFR yielded respective recombinant proteins fused with 6 histidine residues at the N-terminal (His6-FGFR1, His6-PDGFRβ or His6-HGFR).
The tyrosine kinase reaction was conducted as follows. In the case of VEGFR2, for example, 10 μl of a kinase reaction solution {200 mM Hepes (pH 7.4), 80 mM MgCl2, 16 mM MnCl2, 2 mM Na3VO4}, 250 ng of biotin-bound poly(Glu4:Tyr1) (biotin-poly(GT), purchased from CIS Diagnostics Co.) (6 μl of a 15-fold dilution with distilled water), 15 ng of His6-VEGFR2 (10 μl of a 240-fold dilution with 0.4% BSA solution) and the test substance dissolved in dimethyl sulfoxide (4 μl of a 100-fold dilution with 0.1% BSA solution) were added into each well of a 96-well round-bottom plate (NUNC Co., Product No. 163320), to a total of 30 μl. […]

Where [3] appears, read: His6-VEGFR2 cytoplasmic domain, biotin-poly(GT), HTRF, read-out: VEGFR2 kinase IC50.
Setting [4] is: His6-FGFR1 cytoplasmic domain, biotin-poly(GT), HTRF, read-out: FGFR1 kinase IC50.

T2 sequence (P11362 398-822 limits assumed): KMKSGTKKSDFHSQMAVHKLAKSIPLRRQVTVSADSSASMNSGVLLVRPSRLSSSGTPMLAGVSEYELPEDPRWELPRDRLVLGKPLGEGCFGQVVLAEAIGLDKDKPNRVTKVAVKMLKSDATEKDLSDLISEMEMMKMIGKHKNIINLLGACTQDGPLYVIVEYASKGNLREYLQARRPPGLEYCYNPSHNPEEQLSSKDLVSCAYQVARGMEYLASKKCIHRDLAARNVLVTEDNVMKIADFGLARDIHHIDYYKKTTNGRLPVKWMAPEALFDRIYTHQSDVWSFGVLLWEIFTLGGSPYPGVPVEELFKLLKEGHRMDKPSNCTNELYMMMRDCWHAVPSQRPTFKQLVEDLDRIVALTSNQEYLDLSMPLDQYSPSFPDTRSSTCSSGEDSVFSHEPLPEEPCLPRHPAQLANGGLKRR
T1 sequence (P35968 786-1356 limits assumed): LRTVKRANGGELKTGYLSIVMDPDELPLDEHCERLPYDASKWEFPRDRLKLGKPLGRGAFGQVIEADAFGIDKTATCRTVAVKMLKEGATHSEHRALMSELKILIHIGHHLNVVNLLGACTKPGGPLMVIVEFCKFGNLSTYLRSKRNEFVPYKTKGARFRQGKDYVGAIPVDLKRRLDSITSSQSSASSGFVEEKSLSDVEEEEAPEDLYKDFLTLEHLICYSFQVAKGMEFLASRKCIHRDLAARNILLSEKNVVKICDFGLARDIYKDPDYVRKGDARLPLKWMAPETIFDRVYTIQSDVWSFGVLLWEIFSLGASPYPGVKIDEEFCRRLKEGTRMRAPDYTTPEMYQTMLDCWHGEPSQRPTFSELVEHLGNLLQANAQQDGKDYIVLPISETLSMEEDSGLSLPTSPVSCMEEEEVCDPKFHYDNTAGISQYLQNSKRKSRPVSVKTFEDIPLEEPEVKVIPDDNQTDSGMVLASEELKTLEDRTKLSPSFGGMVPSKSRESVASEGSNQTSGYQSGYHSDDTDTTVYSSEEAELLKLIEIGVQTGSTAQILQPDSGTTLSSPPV

`CNC(=O)n1ccc2cc(Oc3ccnc(NC(=O)NCC(=O)N4CCCC4)c3)ccc21` [Example 7, 5-(2-(3-(2-Oxo-2-(pyrrolidin-1-yl)ethyl)ureido)pyridin-4-yloxy)-1H-indole-1-carboxylic acid methylamide]: the values for the IC50 in assay [1] (setting [3]) and in assay [2] (setting [4]) were 8 nM and 26 nM, respectively.

With `CNC(=O)n1ccc2cc(Oc3ccnc(NC(=O)NCC(N)=O)c3)ccc21` [Example 11, 5-(2-(3-Carbamoylmethylureido)pyridin-4-yloxy)-1H-indole-1-carboxylic acid methylamide], the IC50 amounted to 3 nM in assay [1] (setting [3]) and 47 nM in assay [2] (setting [4]).

Take `CNC(=O)n1ccc2cc(Oc3ccnc(NC(=O)N[C@@H](CO)C(=O)N4CCCC4)c3)ccc21` [Example 18, 5-(2-(3-((1S)-1-Hydroxymethyl-2-oxo-2-pyrrolidin-1-ylethyl)ureido)pyridin-4-yloxy)-1H-indole-1-carboxylic acid methylamide]: the IC50 stood at 3 nM in assay [1] (setting [3]) and 70 nM in assay [2] (setting [4]).

Take `CNC(=O)n1ccc2cc(Oc3ccnc(NC(=O)NCCCC(=O)N4CCCC4)c3)ccc21` [Example 32, 5-(2-(3-(4-Oxo-4-(pyrrolidin-1-yl)butyl)ureido)pyridin-4-yloxy)-1H-indole-1-carboxylic acid methylamide]: the IC50 in assay [1] (setting [3]) amounted to 9.3 nM; in assay [2] (setting [4]), 16 nM.

As to `CNC(=O)n1ccc2cc(Oc3ccnc(NC(=O)NCCCC(=O)NC4CC4)c3)ccc21` [Example 33, 5-(2-(3-(3-(Cyclopropylcarbamoyl)propyl)ureido)pyridin-4-yloxy)-1H-indole-1-carboxylic acid methylamide], the IC50 was found to be 7.1 nM in assay [1] (setting [3]) and 12 nM in assay [2] (setting [4]).

As to `CNC(=O)n1ccc2cc(Oc3ccnc(NC(=O)NCCCC(=O)N4CCC(C)(O)CC4)c3)ccc21` [Example 34, 5-(2-(3-(4-(4-Hydroxy-4-methylpiperidin-1-yl)-4-oxobutyl)ureido)pyridin-4-yloxy)-1H-indole-1-carboxylic acid methylamide], the IC50 in assay [1] (setting [3]) worked out at 8.4 nM; in assay [2] (setting [4]), 22 nM.

With `CNC(=O)CCCNC(=O)Nc1cc(Oc2ccc3c(ccn3C(=O)NC)c2)ccn1` [Example 36, 5-(2-(3-(3-(Methylcarbamoyl)propyl)ureido)pyridin-4-yloxy)-1H-indole-1-carboxylic acid methylamide], the values for the IC50 in assay [1] (setting [3]) and in assay [2] (setting [4]) were 3.4 nM and 16 nM, respectively.

With `CNC(=O)n1ccc2cc(Oc3ccnc(NC(=O)N4CCCC4)c3)ccc21` [Example 37, N1-Methyl-5-(2-(pyrrolidin-1-ylcarbonyl)amino-4-pyridyl)oxy-1H-1-indolecarboxamide], the IC50 in assay [1] (setting [3]) is 4.8 nM; in assay [2] (setting [4]), 1.2 nM.

For `CNC(=O)n1ccc2cc(Oc3ccnc(NC(=O)N4CCC(=O)CC4)c3)ccc21` [Example 40, N1-methyl-5-(2-(4-oxopiperidin-1-ylcarbonyl)amino-4-pyridyl)oxy-1H-1-indolecarboxamide], the concentration for half-maximal inhibition (IC50) in assay [1] is 5.7 nM; in assay [2], 6.9 nM.

Consider `CNC(=O)CCCC1CCN(C(=O)Nc2cc(Oc3ccc4c(ccn4C(=O)NC)c3)ccn2)CC1` [Example 43, 5-(2-(((4-(3-Methylcarbamoylpropyl)piperidin-1-yl)carbonyl)amino)pyridin-4-yloxy)-1H-indole-1-carboxylic acid methylamide], for which the IC50 in assay [1] (setting [3]) was 6.4 nM; in assay [2] (setting [4]), 18 nM.

As for `CNC(=O)n1ccc2cc(Oc3ccnc(NC(=O)N4CCC(CCCC(N)=O)CC4)c3)ccc21` [Example 44, 5-(2-(((4-(3-Carbamoylpropyl)piperidin-1-yl)carbonyl)amino)pyridin-4-yloxy)-1H-indole-1-carboxylic acid methylamide], the IC50 in assay [1] (setting [3]) turned out to be 7.7 nM; in assay [2] (setting [4]) it was 14 nM.

Consider `CNC(=O)n1ccc2cc(Oc3ccnc(NC(=O)NCCCS(C)(=O)=O)c3)ccc21` [Example 50, N1-Methyl-5-(2-((3-methylsulfonylpropylamino)carbonyl)amino-4-pyridyl)-oxy-1H-1-indolecarboxamide], for which the results for the IC50 in assay [1] (setting [3]) and in assay [2] (setting [4]) were 5 nM and 13 nM, respectively.

For the molecule `O=C(Nc1cc(Oc2ccc3c(ccn3C(=O)NC3CC3)c2)ccn1)N1CCC(N2CCCC2)CC1` [Example 68, N1-Cyclopropyl-5-(2-(((4-(pyrrolidin-1-yl)piperidin-1-yl)carbonyl)amino)pyridin-4-yloxy)-1H-1-indolecarboxamide], the IC50 in assay [1] (setting [3]) was found to be 37 nM; in assay [2] (setting [4]) it was 52 nM.

Regarding `CCNC(=O)n1ccc2cc(Oc3ccnc(NC(=O)N4CCC(O)CC4)c3)ccc21` [Example 79, N1-Ethyl-5-(2-((4-hydroxypiperidin-1-yl)carbonyl)amino-4-pyridyl)oxy-1H-1-indolecarboxamide], the IC50 in assay [1] (setting [3]) is 9.8 nM; in assay [2] (setting [4]) it was 25 nM.
